Data reported in patent US20240316038A1, “APOL1 INHIBITORS AND METHODS OF USE” (Maze Therapeutics, Inc., priority 2021, published 2024).

What was measured:
APOL1 G2 [1] = target: T1, APOL1 G2 (Homo sapiens, UniProt O14791, DEL388-389); assay: APOL1 calcium transport inhibition assay (GCaMP6f calcium influx, FLIPR) in HEK T-REx/GCaMP6f/APOL1 G2 K6.3 cells; assay type: cell-based; conditions: inhibition of APOL1-mediated calcium influx; geometric mean of at least 2 assay runs, † = single assay run (technical duplicate)
T1 construct: expressed in transfected cells; host or cells: HEK293 T-REx clonal lines: HEK T-REx/GCaMP6f/APOL1 G2 K6.3 in A1, HEK293/T-REx APOL1 G2/clone #2 in A2
T1 sequence (O14791 with tags, fused parts or gaps DEL388-389): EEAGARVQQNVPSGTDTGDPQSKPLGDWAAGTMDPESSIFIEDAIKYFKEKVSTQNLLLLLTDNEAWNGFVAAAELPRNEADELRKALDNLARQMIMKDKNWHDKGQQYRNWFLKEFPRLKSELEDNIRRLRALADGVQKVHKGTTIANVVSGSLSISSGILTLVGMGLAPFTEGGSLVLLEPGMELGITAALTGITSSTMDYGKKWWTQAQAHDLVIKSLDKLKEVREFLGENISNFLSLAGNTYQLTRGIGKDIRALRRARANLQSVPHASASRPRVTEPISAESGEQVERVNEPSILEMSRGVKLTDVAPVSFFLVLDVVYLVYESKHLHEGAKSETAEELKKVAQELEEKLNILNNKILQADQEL
Method in brief: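 HEK293 cells stably expressing GCaMP6f, APOL1 G2 induced 6 h with doxycycline (20 ng/mL added), then washed into Ca2+-free Tyrode's buffer pH 7.4. Compounds (8-point dose response) preincubated 10 min at room temperature, then Ca2+ injected to 5 mM final and influx read on FLIPR. AC50 reported as geometric mean of runs.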

APOL1 G2 [2] = target: T1, APOL1 G2; assay: Rescue of HEK293 cell death caused by overexpression of APOL1 (CellTiter-Glo luminescence), HEK293/T-REx APOL1 G2/clone #2; assay type: cell-based; conditions: reversal of cell death caused by overexpression of APOL1; geometric mean of at least 2 assay runs, † = single assay run (technical duplicate)
Method in brief: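 HEK293/T-REx APOL1 G2 clone #2 cells, 5,000/well, induced with 6 ng/mL doxycycline and exposed to compound (8-point, 3-fold dilutions, 0.5% DMSO) for 17 h at 37 °C. Viability by CellTiter-Glo luminescence; EC50 for reversal of APOL1-induced death from a four-parameter logistic fit, geometric mean of ≥2 runs.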

Compound: CN(c1ccc(OC[C@H](O)CN2CCC(c3cccc(Cl)c3)C2(C)C)cc1)S(C)(=O)=O (single isomer, unassigned) [Compound 73, N-(4-((R)-3-((R) or (S)-3-(3-chlorophenyl)-2,2-dimethylpyrrolidin-1-yl)-2-hydroxypropoxy)phe-nyl)-N-methylmethanesulfon-amide]
- AC50 (APOL1 G2 [1]): 3060 nM
- EC50 (APOL1 G2 [2]): > 17800 nM

Compound: C[C@@H]1CN(CCc2cccc(C#N)c2)C[C@H]1COc1ccc(S(C)(=O)=O)cc1 [Compound 149, 3-{2-[(3S,4S)-3-[(4-methane-sulfonylphen-oxy)methyl]-4-methylpyrroli-din-1-yl]ethyl}-benzonitrile]
- AC50 (APOL1 G2 [1]): 99.8 nM
- EC50 (APOL1 G2 [2]): 272 nM

Compound: C[C@@H]1CN(CC(O)c2cccc(C#N)c2)C[C@H]1COc1ccc(S(C)(=O)=O)cc1 (single isomer, unassigned) [Compound 127, 3-[(1S or 1R)-1-hydroxy-2-[(3S,4S)-3-[(4-methanesulfonylphenoxy)methyl]-4-methylpyrrolidin-1-yl]ethyl] benzonitrile]
- AC50 (APOL1 G2 [1]): 2480 nM
- EC50 (APOL1 G2 [2]): > 10000 nM

Compound: CS(=O)(=O)c1ccc(OCC2(O)CCCN(CCc3cccc(Cl)c3)C2)cc1 (single isomer, unassigned) [Compound 5, (R) or (S)-1-(3-chlorophenethyl)-3-((4-(methylsulfonyl)phenoxy)methyl) piperidin-3-ol]
- AC50 (APOL1 G2 [1]): 10100 nM
- EC50 (APOL1 G2 [2]): 5370 nM

Compound: CN=S(C)(=O)c1ccc(OC[C@@H]2CN(CCc3cccc(C#N)c3)C[C@H]2C)cc1 (stereo partly drawn) [Compound 169, 3-{2-[(3S,4S)-3-methyl-4-({4-[methyl(methyli-mino)oxo-λ^6-sulfanyl]phenoxy}methyl)pyrrolidin-1-yl]ethyl}benzonitrile]
- AC50 (APOL1 G2 [1]): 79.7 nM
- EC50 (APOL1 G2 [2]): 182 nM

Compound: Cc1ccc(Cl)cc1CCN1CCN[C@H](COc2ccc(S(C)(=O)=O)cc2)C1 [Compound 197, (3S)-1-[2-(5-chloro-2-methylphenyl)ethyl]-3-[(4-methanesulfonylphenoxy)methyl]piperazine]
- AC50 (APOL1 G2 [1]): 334 nM
- EC50 (APOL1 G2 [2]): 369 nM

Compound: CN(c1ccc(OCC2CCCN(CCc3cccc(Cl)c3)C2)cc1)S(C)(=O)=O (centres unmarked) [Compound 7, N-(4-((1-(3-chlorophenethyl)piperidin-3-yl)methoxy)phenyl)-N-methylmethanesulfonamide]
- AC50 (APOL1 G2 [1]): < 253 nM
- EC50 (APOL1 G2 [2]): 322 nM

Compound: CN(c1ccc(OC[C@H](O)CNCCc2cccc(Cl)c2)cc1)S(C)(=O)=O [Compound 87, (R)-N-(4-(3-((3-chlorophenethyl)a-mino)-2-hydroxypropoxy)phe-nyl)-N-methylmethanesulfon-amide]
- AC50 (APOL1 G2 [1]): 352 nM
- EC50 (APOL1 G2 [2]): 1850 nM

Compound: C[C@]1(O)CN(CCc2cccc(Cl)c2)C[C@@H]1COc1ccc(S(C)(=O)=O)cc1 (single isomer, unassigned) [Compound 206, (3R,4R or 3S,4S)-1-[2-(3-chlorophenyl)ethyl]-4-[(4-methanesulfonylphenoxy)methyl]-3-methylpyrrolidin-3-ol]
- AC50 (APOL1 G2 [1]): > 25000 nM
- EC50 (APOL1 G2 [2]): > 30000 nM

Compound: CN(c1ccc(OC[C@@H](O)CN2CCC(c3cccc(Cl)c3)C2)cc1)S(C)(=O)=O (single isomer, unassigned) [Compound 76, N-(4-((S)-3-((R) or (S)-3-(3-chlorophenyl)pyrro-lidin-1-yl)-2-hydroxypropoxy)phe-nyl)-N-methylmethanesulfon-amide]
- AC50 (APOL1 G2 [1]): 2830 nM
- EC50 (APOL1 G2 [2]): > 6280 nM

Compound: COC1CCN(CCc2cccc(Cl)c2)CC1COc1ccc(S(C)(=O)=O)cc1 (single isomer, unassigned) [Compound 33, rac-trans or cis-1-(3-chlorophenethyl)-4-methoxy-3-((4-(methylsulfonyl)phenoxy)methyl)piperidine]
- AC50 (APOL1 G2 [1]): 10800 nM
- EC50 (APOL1 G2 [2]): > 8670 nM

Compound: CN(c1ccc(OC[C@H](O)CN2CCOC(c3cccc(Cl)c3)C2)cc1)S(C)(=O)=O (stereo partly drawn) [Compound 83, N-(4-((2R)-3-(2-(3-chlorophenyl)morpho-lino)-2-hydroxypropoxy)phe-nyl)-N-methylmethanesulfon-amide]
- AC50 (APOL1 G2 [1]): > 25000 nM
- EC50 (APOL1 G2 [2]): > 30000 nM

Compound: CN=S(C)(=O)c1ccc(OC[C@H]2C[C@@H](C)N(CCc3cccc(C#N)c3)C2)cc1 (stereo partly drawn) [Compound 157, 3-[2-[(2R,4S)-2-methyl-4-({4-[methyl(methyli-mino)oxo-λ^6-sulfanyl]phenoxy}methyl)pyrrolidin-1-yl]ethyl}benzonitrile]
- AC50 (APOL1 G2 [1]): 441 nM
- EC50 (APOL1 G2 [2]): 38.9 nM

Compound: CS(=O)(=O)c1ccc(CCC2CCCN(CCc3cccc(Cl)c3)C2)cc1 (centres unmarked) [Compound 39, 1-(3-chlorophenethyl)-3-(4-(methylsulfonyl)phenethyl)piperidine]
- AC50 (APOL1 G2 [1]): 249 nM
- EC50 (APOL1 G2 [2]): 904 nM

Compound: CC1CC(COc2ccc(S(C)(=O)=O)cc2)CN1CCc1cc(Cl)cc(C#N)c1 (single isomer, unassigned) [Compound 204, 3-chloro-5-(2-((2R,4S or 2S,4R or 2S,4S or 2R.4R)-2-methyl-4-((4-(methylsulfonyl)phenoxy)methyl)pyrrolidin-1-yl)ethyl)benzonitrile]
- AC50 (APOL1 G2 [1]): 456 nM
- EC50 (APOL1 G2 [2]): 42.3 nM

Compound: COC(CN1CCC[C@@H](COc2ccc(S(C)(=O)=O)cc2)C1)c1cccc(Cl)c1 (single isomer, unassigned) [Compound 26, (R)-1-((S)-2-(3-chlorophenyl)-2-methoxyethyl)-3-((4-(methylsulfonyl)phenoxy)methyl)piperidine or (R)-1-((R)-2-(3-chlorophenyl)-2-methoxyethyl)-3-((4-(methylsulfonyl)phenoxy)methyl)piperidine]
- AC50 (APOL1 G2 [1]): 1540 nM
- EC50 (APOL1 G2 [2]): 2240 nM

Compound: COC1CCN(CCc2cccc(Cl)c2)CC1COc1ccc(S(C)(=O)=O)cc1 (single isomer, unassigned) [Compound 35, (3S,4R) or (3R,4R) or (3S,4S) or (3R,4S)-1-(3-chlorophenethyl)-4-methoxy-3-((4-(methylsulfonyl)phenoxy)methyl)piperidine]
- AC50 (APOL1 G2 [1]): 3780 nM
- EC50 (APOL1 G2 [2]): 6130 nM

Compound: CC1CC(COc2ccc(S(C)(=O)=O)cc2)CN1CCc1cccc(C#N)c1 (single isomer, unassigned) [Compound 135, rac-cis or trans-3-{2-[4-[(4-methanesulfon-ylphenoxy)meth-yl]-2-methyl-pyrrolidin-1-yl]-ethyl}benzo-nitrile]
- AC50 (APOL1 G2 [1]): > 12500 nM
- EC50 (APOL1 G2 [2]): 5730 nM

Compound: CN(c1ccc(OC[C@@H](O)CNCCc2cc(Cl)cc(Cl)c2)cc1)S(C)(=O)=O [Compound 91, (S)-N-(4-(3-((3,5-dichlorophenethyl)amino)-2-hydroxypropoxy)phe-nyl)-N-methylmethanesulfon-amide]
- AC50 (APOL1 G2 [1]): 472 nM
- EC50 (APOL1 G2 [2]): 1040 nM

Compound: CN(c1ccc(OCC2CN(CCc3cccc(Cl)c3)CCCO2)cc1)S(C)(=O)=O (single isomer, unassigned) [Compound 12, (S) or (R)-N-(4-((4-(3-chlorophenethyl)-1,4-oxazepan-2-yl)methoxy)phenyl)-N-methylmethane-sulfonamide]
- AC50 (APOL1 G2 [1]): 2390 nM
- EC50 (APOL1 G2 [2]): 3000 nM

Compound: CC1CC(COc2ccc(S(C)(=O)=O)cc2)CN1CCc1cc(Cl)cc(C#N)c1 (single isomer, unassigned) [Compound 199, rac-cis or trans-3-chloro-5-{2-[4-[(4-methanesulfonylphenoxy)methyl]-2-methylpyrrolidin-1-yl]ethyl}benzonitrile]
- AC50 (APOL1 G2 [1]): 817 nM
- EC50 (APOL1 G2 [2]): 2440 nM

Compound: CS(=O)(=O)c1ccc(OC[C@H]2CCCN(CC(O)c3cccc(Cl)c3)C2)cc1 (single isomer, unassigned) [Compound 19, (S) or (R)-1-(3-chlorophenyl)-2-((S)-3-((4-(methylsulfonyl)phenoxy)methyl)piperidin-1-yl)ethan-1-ol]
- AC50 (APOL1 G2 [1]): 480 nM
- EC50 (APOL1 G2 [2]): 374 nM

Compound: C[C@@H]1CN(CC(O)c2cc(C#N)cc(C#N)c2)C[C@H]1COc1ccc(S(C)(=O)=O)cc1 (single isomer, unassigned) [Compound 131, 5-[(1S or 1R)-1-hydroxy-2-[(35,4S)-3-[(4-methanesulfonylphenoxy)methyl]-4-methylpyrrolidin-1-yl]ethyl]benzene-1,3-dicarbonitrile]
- AC50 (APOL1 G2 [1]): 394 nM
- EC50 (APOL1 G2 [2]): 460 nM

Compound: CC(Cc1cccc(Cl)c1)NC[C@@H](O)COc1ccc(N(C)S(C)(=O)=O)cc1 (single isomer, unassigned) [Compound 88, N-(4-((R)-3-(((S) or (R)-1-(3-chlorophenyl)propan-2-yl)amino)-2-hydroxypropoxy)phe-nyl)-N-methylmethanesulfon-amide]
- AC50 (APOL1 G2 [1]): 338 nM
- EC50 (APOL1 G2 [2]): 698 nM

Compound: CC(CN1C[C@@H](COc2ccc(S(C)(=O)=O)cc2)C[C@H]1C)c1cc(Cl)cc(C#N)c1 (single isomer, unassigned) [Compound 142, 3-chloro-5-[(2R or 2S)-1-[(2R, 4S)-4-[(4-meth-anesulfonyl-phenoxy)meth-yl]-2-methyl-pyrrolidin-1-yl]-propan-2-yl]-benzonitrile]
- AC50 (APOL1 G2 [1]): 1230 nM
- EC50 (APOL1 G2 [2]): 131 nM
